Where only a bound is given, the exact number is not on record here.

The target in the assay is T1, Human M4 (Homo sapiens, UniProt P08173).
T1 construct: expressed in transfected cells; host or cells: CHO-K1 (Chinese hamster ovary) cells, stably co-transfected with Gqi5
T1 sequence (P08173 1-479): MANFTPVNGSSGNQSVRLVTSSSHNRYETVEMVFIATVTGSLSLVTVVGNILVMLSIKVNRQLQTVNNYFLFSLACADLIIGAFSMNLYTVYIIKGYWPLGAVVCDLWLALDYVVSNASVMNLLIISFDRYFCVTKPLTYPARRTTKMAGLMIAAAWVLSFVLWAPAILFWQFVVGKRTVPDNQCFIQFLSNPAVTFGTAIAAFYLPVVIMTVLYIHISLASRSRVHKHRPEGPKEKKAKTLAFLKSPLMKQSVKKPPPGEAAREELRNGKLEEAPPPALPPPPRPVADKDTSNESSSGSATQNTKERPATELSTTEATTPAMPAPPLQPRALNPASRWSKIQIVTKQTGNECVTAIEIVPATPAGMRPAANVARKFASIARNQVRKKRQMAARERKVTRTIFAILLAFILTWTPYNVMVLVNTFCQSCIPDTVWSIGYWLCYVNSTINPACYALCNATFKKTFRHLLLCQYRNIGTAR
In words: mAChR M4 cell-based functional assay (calcium flux, antagonism of EC80 acetylcholine response). As to conditions: for remaining activity at 30 µM: % ACh maximum at 30 μM, human M4, read-out: Emin; for IC50: M4/Gqi5/CHO-K1 cells, decrease of response to EC80 acetylcholine. The procedure: Human or rat M4 cDNA, along with the chimeric G protein Gqi5, were transfected into Chinese hamster ovary (CHO-K1) cells purchased from the American Type Culture Collection using Lipofectamine2000. M4/Gqi5/CHO cells were grown in Ham's F-12 medium containing 10% heat-inactivated fetal bovine serum (FBS), 20 mM HEPES, 500 μg/mL G418 sulfate, and 200 μg/mL Hygromycin B.
For high throughput measurement of agonist-evoked increases in intracellular calcium, CHO-K1 cells stably expressing muscarinic receptors were plated in growth medium lacking G418 and hygromycin at 15,000 cells/20 μL/well in Greiner 384-well black-walled, tissue culture (TC)-treated, clear-bottom plates (VWR). Cells were incubated overnight at 37° C. and 5% CO2. The next day, cells were washed using an ELX 405 (BioTek) with assay buffer; the final volume was then aspirated to 20 μL. Next, 20 μL of a 2.3 μM stock of Fluo-4/acetoxymethyl ester (Invitrogen, Carlsbad, Calif.), prepared as a 2.3 mM stock in DMSO and mixed in a 1:1 ratio with 10% (w/v) Pluronic F-127 and diluted in assay buffer, was added to the wells and the cell plates were incubated for 50 min at 37° C. and 5% CO2. Dye was removed by washing with the ELX 405 and the final volume was aspirated to 20 μL. Compound master plates were formatted in a 10 point concentration-response curve (CRC) format (1:3 dilutions) in 100% DMSO with a starting concentration of 10 or 1 mM using a BRAVO liquid handler (Agilent). Test compound CRCs were then transferred to daughter plates (240 nL) using the Echo acoustic plate reformatter (Labcyte, Sunnyvale, Calif.) and then diluted into assay buffer (40 μL) to a 2× stock using a Thermo Fisher Combi (Thermo Fisher Scientific, Waltham, Mass.).
Calcium flux was measured using the Functional Drug Screening System (FDSS) 6000 or 7000 (Hamamatsu Corporation, Tokyo, Japan) as an increase in the fluorescent static ratio. Compounds were applied to cells (20 μL, 2×) using the automated system of the FDSS at 2 seconds into the protocol and the data were collected at 1 Hz. At 143 s, 10 μL of an EC20 concentration of the muscarinic receptor agonist acetylcholine was added (5×), followed by the addition of 12 μL of an EC80 concentration of acetylcholine at the 268 s time point (5×). Agonist activity was analyzed as a concentration-dependent increase in calcium mobilization upon compound addition. Positive allosteric modulator activity was analyzed as a concentration-dependent increase in the EC20 acetylcholine response. Antagonist activity was analyzed as a concentration-dependent decrease in the EC80 acetylcholine response; for the purposes of the tables herein, an IC50 (inhibitory concentration 50) was calculated as a concentration-dependent decrease of the response elicited by an EC80 concentration of acetylcholine. Concentration-response curves were generated using a four-parameter logistical equation in XLFit curve fitting software (IDBS, Bridgewater, N.J.) for Excel (Microsoft, Redmond, Wash.) or Prism (GraphPad Software, Inc., San Diego, Calif.) or the Dotmatics software platform (Dotmatics, Bishop's Stortford, UK).
Compounds were synthesized as described above. Activity (IC50 and Emin) was determined in the mAChR M4 cell-based functional assay as described above and the data are shown in Table 5. The compound numbers correspond to the compound numbers used in Examples 1-4 and Tables 1-4.
On the technique in general: A change in cytosolic calcium serves as a functional read-out for many receptors and channels.

As for `Cc1cnn(C)c1-c1ccc(NCCC2CCC3CN(Cc4ccccc4)CC23)nn1` (stereo not drawn) [Compound 15, N-[2-(2-benzyl-3,3a,4,5,6,6a-hexahydro-1H-cyclopenta[c]pyrrol-4-yl)ethyl]-6-(2,4-dimethylpyrazol-3-yl)pyridazin-3-amine], the remaining activity at 30 µM amounted to 8.5% and the IC50 is 2260 nM.

On to `Cc1cnn(C)c1-c1ccc(OC2CCC3CN(CC4CC5C=CC4C5)CC32)nn1` (stereo not drawn) [Compound 7, 2-(5-bicyclo[2.2.1]hept-2-enylmethyl)-4-[6-(2,4-dimethylpyrazol-3-yl)pyridazin-3-yl]oxy-3,3a,4,5,6,6a-hexahydro-1H-cyclopenta[c]pyrrole], for which the remaining activity at 30 µM was 5.46% and the IC50 worked out at 1360 nM.

For the molecule `Cc1cnn(C)c1-c1ccc(NCCC2CCC3CN(CC4CC5C=CC4C5)CC23)nn1` (stereo not drawn) [Compound 13, N-[2-[2-(5-bicyclo[2.2.1]hept-2-enylmethyl)-3,3a,4,5,6,6a-hexahydro-1H-cyclopenta[c]pyrrol-4-yl]ethyl]-6-(2,4-dimethylpyrazol-3-yl)pyridazin-3-amine], the remaining activity at 30 µM stood at 3.75% and the IC50 stood at 65 nM.

Take `Cc1cnn(C)c1-c1ccc(NCC2CCC3CN(CC4CC5C=CC4C5)CC23)nn1` (stereo not drawn) [Compound 21, N-[[2-(5-bicyclo[2.2.1]hept-2-enylmethyl)-3,3a,4,5,6,6a-hexahydro-1H-cyclopenta[c]pyrrol-4-yl]methyl]-6-(2,4-dimethylpyrazol-3-yl)pyridazin-3-amine]: the remaining activity at 30 µM was determined as 5.19% and the IC50 was 55 nM.

In the case of `Cc1cccnc1CN1CC2CCC(CNc3ccc(-c4c(C)cnn4C)nn3)C2C1` (stereo not drawn) [Compound 22, 6-(2,4-dimethylpyrazol-3-yl)-N-[[2-[(3-methyl-2-pyridyl)methyl]-3,3a,4,5,6,6a-hexahydro-1H-cyclopenta[c]pyrrol-4-yl]methyl]pyridazin-3-amine], the remaining activity at 30 µM turned out to be 10.8% and the IC50 is 1500 nM.

Turning to `Cc1cnn(C)c1-c1ccc(NCC2CCC3CN(Cc4ccccc4)CC23)nn1` (stereo not drawn) [Compound 26, N-[(2-benzyl-3,3a,4,5,6,6a-hexahydro-1H-cyclopenta[c]pyrrol-4-yl)methyl]-6-(2,4-dimethylpyrazol-3-yl)pyridazin-3-amine], the remaining activity at 30 µM worked out at 16.1% and the IC50 is > 10000 nM.

As to `Cc1cccnc1CN1CC2CCC(Oc3ccc(-c4c(C)cnn4C)nn3)C2C1` (stereo not drawn) [Compound 4, 4-[6-(2,4-Dimethylpyrazol-3-yl)pyridazin-3-yl]oxy-2-[(3-methyl-2-pyridyl)methyl]-3,3a,4,5,6,6a-hexahydro-1H-cyclopenta[c]pyrrole], the remaining activity at 30 µM amounted to 31.9% and the IC50 was > 10000 nM.

As for `Cc1cccnc1CN1CC2CCC(CCNc3ccc(-c4c(C)cnn4C)nn3)C2C1` (stereo not drawn) [Compound 14, 6-(2,4-dimethylpyrazol-3-yl)-N-[2-[2-[(3-methyl-2-pyridyl)methyl]-3,3a,4,5,6,6a-hexahydro-1H-cyclopenta[c]pyrrol-4-yl]ethyl]pyridazin-3-amine], the remaining activity at 30 µM is 7.73% and the IC50 is 1780 nM.

Turning to `Cc1cnn(C)c1-c1ccc(NCC2CCC3CN(CC4CCCOC4)CC23)nn1` (stereo not drawn) [Compound 24, 6-(2,4-dimethylpyrazol-3-yl)-N-[[2-(tetrahydropyran-3-ylmethyl)-3,3a,4,5,6,6a-hexahydro-1H-cyclopenta[c]pyrrol-4-yl]methyl]pyridazin-3-amine], the remaining activity at 30 µM came to 22.6% and the IC50 was > 10000 nM.

On to `Cc1cnn(C)c1-c1ccc(NCCC2CCC3CN(CC4CCOCC4)CC23)nn1` (stereo not drawn) [Compound 12, 6-(2,4-dimethylpyrazol-3-yl)-N-[2-[2-(tetrahydropyran-4-ylmethyl)-3,3a,4,5,6,6a-hexahydro-1H-cyclopenta[c]pyrrol-4-yl]ethyl]pyridazin-3-amine], for which the remaining activity at 30 µM was found to be 29.4% and the IC50 was > 10000 nM.

Consider `Cc1cnn(C)c1-c1ccc(NCC2CCC3CN(CCc4ccccc4)CC23)nn1` (stereo not drawn) [Compound 23, 6-(2,4-dimethylpyrazol-3-yl)-N-[[2-(2-phenylethyl)-3,3a,4,5,6,6a-hexahydro-1H-cyclopenta[c]pyrrol-4-yl]methyl]pyridazin-3-amine], for which the remaining activity at 30 µM worked out at 5.96% and the IC50 amounted to 766 nM.

Turning to `Cc1cnn(C)c1-c1ccc(OC2CCC3CN(Cc4ccccc4)CC32)nn1` (stereo not drawn) [Compound 8, 2-benzyl-4-[6-(2,4-dimethylpyrazol-3-yl)pyridazin-3-yl]oxy-3,3a,4,5,6,6a-hexahydro-1H-cyclopenta[c]pyrrole], the remaining activity at 30 µM is 43.3% and the IC50 was > 10000 nM.

Turning to `Cc1cnn(C)c1-c1ccc(NCC2CCC3CN(CCC(C)(C)C)CC23)nn1` (stereo not drawn) [Compound 19, N-[[2-(3,3-Dimethylbutyl)-3,3a,4,5,6,6a-hexahydro-1H-cyclopenta[c]pyrrol-4-yl]methyl]-6-(2,4-dimethylpyrazol-3-yl)pyridazin-3-amine], the remaining activity at 30 µM turned out to be 5.11% and the IC50 turned out to be 149 nM.

For `Cc1cnn(C)c1-c1ccc(OC2CCC3CN(CCC(C)(C)C)CC32)nn1` (stereo not drawn) [Compound 5, 2-(3,3-dimethylbutyl)-4-[6-(2,4-dimethylpyrazol-3-yl)pyridazin-3-yl]oxy-3,3a,4,5,6,6a-hexahydro-1H-cyclopenta[c]pyrrole], the remaining activity at 30 µM amounted to 9.66% and the IC50 came out at 3570 nM.

Regarding `Cc1cnn(C)c1-c1ccc(NCCC2CCC3CN(CCc4ccccc4)CC23)nn1` (stereo not drawn) [Compound 16, 6-(2,4-dimethylpyrazol-3-yl)-N-[2-[2-(2-phenylethyl)-3,3a,4,5,6,6a-hexahydro-1H-cyclopenta[c]pyrrol-4-yl]ethyl]pyridazin-3-amine], the remaining activity at 30 µM was determined as 6.59% and the IC50 was found to be 2210 nM.

Consider `Cc1cnn(C)c1-c1ccc(NCC2CCC3CN(CC45CC6CC(CC(C6)C4)C5)CC23)nn1` (stereo not drawn) [Compound 20, N-[[2-(1-adamantylmethyl)-3,3a,4,5,6,6a-hexahydro-1H-cyclopenta[c]pyrrol-4-yl]methyl]-6-(2,4-dimethylpyrazol-3-yl)pyridazin-3-amine], for which the remaining activity at 30 µM is 4.4% and the IC50 came out at 53 nM.

On to `Cc1cnn(C)c1-c1ccc(NCCC2CCC3CN(CC4CCCOC4)CC23)nn1` (stereo not drawn) [Compound 11, 6-(2,4-dimethylpyrazol-3-yl)-N-[2-[2-(tetrahydropyran-3-ylmethyl)-3,3a,4,5,6,6a-hexahydro-1H-cyclopenta[c]pyrrol-4-yl]ethyl]pyridazin-3-amine], for which the remaining activity at 30 µM is 20.9% and the IC50 was > 10000 nM.

Turning to `Cc1cnn(C)c1-c1ccc(OC2CCC3CN(CCc4ccccc4)CC32)nn1` (stereo not drawn) [Compound 9, 4-[6-(2,4-dimethylpyrazol-3-yl)pyridazin-3-yl]oxy-2-(2-phenylethyl)-3,3a,4,5,6,6a-hexahydro-1H-cyclopenta[c]pyrrole], the remaining activity at 30 µM is 29.6% and the IC50 was > 10000 nM.

A word on the IC50: it is the concentration needed to halve the response being measured.

The values are drawn from patent publication US11352344B2, “Antagonists of the muscarinic acetylcholine receptor M4” (Vanderbilt University, priority 2017, dated 2022).
